Data as given in patent US5968910A, “Compositions containing two or three inhibitors of different HIV reverse transcriptases” (priority 1994, dated 1999).
≈ marks a conversion by molar mass, not a printed value. Where two headings read alike, the source gives them in different places.

Key:
Type in all cases: cell-based
HIV-1/B 101Glu = assay: Sensitivity of mutant HIV-1 strain in CEM cell cultures; details: Table 5
Method: (§1) CEM cells were suspended at 250,000 cells per ml of culture medium and infected with wild-type HIV-I(IIIB) or mutant HIV-1 strains at 100 50% cell culture infective doses per ml. Then 100 μl of the infected cell suspensions was added to 200-μl microtiter plate wells containing 100 μl of an appropriate dilution of the test compounds. After 4 days incubation at 37° C., the cell cultures were examined for syncytium formation.

HIV-1/III(0.1) 103-Asn = assay: as above; details: Table 5
Method: as §1

HIV-1/I(0.1) 103-Asn = assay: as above; details: Table 5
Method: as §1

[1] = test system: HIV-1/V(0.1) 101-Ile + 141-Glu; assay: as above; details: Table 5
Method: as §1

HIV-1/V(0.5) 103-Asn = assay: as above; details: Table 5
Method: as §1

HIV-1/IV(0.1) 103-Thr = assay: as above; details: Table 5
Method: as §1

HIV-1/II(0.1) 100-Ile = assay: as above; details: Table 5
Method: as §1

HIV-1(IIIB) (WT) = assay: microbe, parasite or virus in culture
Method: as §1

HIV-1 = assay: Breakthrough of mutant HIV-1 strains in CEM cell cultures, single drugs and double/triple combinations
Method: The culture medium consisted of RPMI 1640 containing 10% fetal bovine serum, 2 mM L-glutamine, and 0.075% NaHCO3. The multiplicity of the initial infection was ~1000 times the CCID50 (50% cell culture infective dose). Passages were performed every 3 to 4 days by adding 0.5 to 1.0 ml of the infected culture supernatant to 5 ml of a suspension containing 4×10^5 uninfected CEM cells per ml. Syncytium formation was used as a parameter of virus breakthrough in the cell cultures. In the drug combination experiments, the compounds were combined at the same initial concentrations as used for the two lowest concentrations in the single-drug experiments.
Compound IV, BHAP and TSAO-m^3 T were added to HIV-1-infected CEM cell cultures at 0.04, 0.10 and 0.25 ug/ml (Compound IV and BHAP) or 1.0, 2.5 and 5.0 μg/ml (TSAO-m^3 T). In addition, various double- and triple-drug combinations of Compound IV, BHAP and TSAO-m^3 T were performed, combining these inhibitors at their lowest (0.04 μg/ml) or intermediary (0.1 μg/ml) concentration as used in the single-drug experiments.

[2] = Human immunodeficiency virus 1, CCRF-CEM, read-out: EC50

## CC(C)Nc1cccnc1N1CCN(C(=O)c2cc3cc(NS(C)(=O)=O)ccc3[nH]2)CC1 [BHAP U90152]
HIV-1/B 101Glu
  EC50: 1.0 µg/mL (≈ 2.19 µM)
HIV-1/III(0.1) 103-Asn
  EC50: 0.05 µg/mL (≈ 0.11 µM)
HIV-1/I(0.1) 103-Asn
  EC50: 0.25 µg/mL (≈ 0.548 µM)
[1]
  EC50: 0.10 µg/mL (≈ 0.219 µM)
HIV-1/V(0.5) 103-Asn
  EC50: 0.50 µg/mL (≈ 1.1 µM)
HIV-1/IV(0.1) 103-Thr
  EC50: 0.47 µg/mL (≈ 1.03 µM)
HIV-1/II(0.1) 100-Ile
  EC50: 0.67 µg/mL (≈ 1.47 µM)
HIV-1(IIIB) (WT)
  EC50: 0.010 µg/mL (≈ 0.0219 µM)
HIV-1; single drug 0.04 μg/ml, day 4 post infection
  HIV-1-induced syncytium formation in CEM cells: 0 percentage of control
HIV-1; single drug 0.04 μg/ml, day 7 post infection
  HIV-1-induced syncytium formation in CEM cells: 12.5 percentage of control
HIV-1; single drug 0.04 μg/ml, day 11 post infection
  HIV-1-induced syncytium formation in CEM cells: 75 percentage of control
HIV-1; single drug 0.04 μg/ml, day 14 post infection
  HIV-1-induced syncytium formation in CEM cells: 100 percentage of control
HIV-1; single drug 0.04 μg/ml, day 18 post infection
  HIV-1-induced syncytium formation in CEM cells: 100 percentage of control
HIV-1; single drug 0.04 μg/ml, day 21 post infection
  HIV-1-induced syncytium formation in CEM cells: 100 percentage of control
HIV-1; single drug 0.04 μg/ml, day 25 post infection
  HIV-1-induced syncytium formation in CEM cells: 100 percentage of control
HIV-1; single drug 0.04 μg/ml, day 28 post infection
  HIV-1-induced syncytium formation in CEM cells: 100 percentage of control
HIV-1; single drug 0.04 μg/ml, day 32 post infection
  HIV-1-induced syncytium formation in CEM cells: 100 percentage of control
HIV-1; single drug 0.04 μg/ml, day 35 post infection
  HIV-1-induced syncytium formation in CEM cells: 100 percentage of control
HIV-1; single drug 0.04 μg/ml, day 39 post infection
  HIV-1-induced syncytium formation in CEM cells: 100 percentage of control
HIV-1; single drug 0.04 μg/ml, day 42 post infection
  HIV-1-induced syncytium formation in CEM cells: 100 percentage of control
HIV-1; single drug 0.04 μg/ml, day 46 post infection
  HIV-1-induced syncytium formation in CEM cells: 100 percentage of control
HIV-1; single drug 0.04 μg/ml, day 49 post infection
  HIV-1-induced syncytium formation in CEM cells: 100 percentage of control
HIV-1; single drug 0.04 μg/ml, day 53 post infection
  HIV-1-induced syncytium formation in CEM cells: 100 percentage of control
HIV-1; single drug 0.04 μg/ml, day 56 post infection
  HIV-1-induced syncytium formation in CEM cells: 100 percentage of control
HIV-1; single drug 0.04 μg/ml, day 60 post infection
  HIV-1-induced syncytium formation in CEM cells: 100 percentage of control
HIV-1; single drug 0.04 μg/ml, day 64 post infection
  HIV-1-induced syncytium formation in CEM cells: 100 percentage of control
HIV-1; single drug 0.04 μg/ml, day 67 post infection
  HIV-1-induced syncytium formation in CEM cells: 100 percentage of control
HIV-1; single drug 0.04 μg/ml, day 71 post infection
  HIV-1-induced syncytium formation in CEM cells: 100 percentage of control
HIV-1; single drug 0.04 μg/ml, day 74 post infection
  HIV-1-induced syncytium formation in CEM cells: 100 percentage of control
HIV-1; single drug 0.04 μg/ml, day 77 post infection
  HIV-1-induced syncytium formation in CEM cells: 100 percentage of control
HIV-1; single drug 0.10 μg/ml, day 4 post infection
  HIV-1-induced syncytium formation in CEM cells: 0 percentage of control
HIV-1; single drug 0.10 μg/ml, day 7 post infection
  HIV-1-induced syncytium formation in CEM cells: 0 percentage of control
HIV-1; single drug 0.10 μg/ml, day 11 post infection
  HIV-1-induced syncytium formation in CEM cells: 0 percentage of control
HIV-1; single drug 0.10 μg/ml, day 14 post infection
  HIV-1-induced syncytium formation in CEM cells: 12.5 percentage of control
HIV-1; single drug 0.10 μg/ml, day 18 post infection
  HIV-1-induced syncytium formation in CEM cells: 75 percentage of control
HIV-1; single drug 0.10 μg/ml, day 21 post infection
  HIV-1-induced syncytium formation in CEM cells: 100 percentage of control
HIV-1; single drug 0.10 μg/ml, day 25 post infection
  HIV-1-induced syncytium formation in CEM cells: 100 percentage of control
HIV-1; single drug 0.10 μg/ml, day 28 post infection
  HIV-1-induced syncytium formation in CEM cells: 100 percentage of control
HIV-1; single drug 0.10 μg/ml, day 32 post infection
  HIV-1-induced syncytium formation in CEM cells: 100 percentage of control
HIV-1; single drug 0.10 μg/ml, day 35 post infection
  HIV-1-induced syncytium formation in CEM cells: 100 percentage of control
HIV-1; single drug 0.10 μg/ml, day 39 post infection
  HIV-1-induced syncytium formation in CEM cells: 100 percentage of control
HIV-1; single drug 0.10 μg/ml, day 42 post infection
  HIV-1-induced syncytium formation in CEM cells: 100 percentage of control
HIV-1; single drug 0.10 μg/ml, day 46 post infection
  HIV-1-induced syncytium formation in CEM cells: 100 percentage of control
HIV-1; single drug 0.10 μg/ml, day 49 post infection
  HIV-1-induced syncytium formation in CEM cells: 100 percentage of control
HIV-1; single drug 0.10 μg/ml, day 53 post infection
  HIV-1-induced syncytium formation in CEM cells: 100 percentage of control
HIV-1; single drug 0.10 μg/ml, day 56 post infection
  HIV-1-induced syncytium formation in CEM cells: 100 percentage of control
HIV-1; single drug 0.10 μg/ml, day 60 post infection
  HIV-1-induced syncytium formation in CEM cells: 100 percentage of control
HIV-1; single drug 0.10 μg/ml, day 64 post infection
  HIV-1-induced syncytium formation in CEM cells: 100 percentage of control
HIV-1; single drug 0.10 μg/ml, day 67 post infection
  HIV-1-induced syncytium formation in CEM cells: 100 percentage of control
HIV-1; single drug 0.10 μg/ml, day 71 post infection
  HIV-1-induced syncytium formation in CEM cells: 100 percentage of control
HIV-1; single drug 0.10 μg/ml, day 74 post infection
  HIV-1-induced syncytium formation in CEM cells: 100 percentage of control
HIV-1; single drug 0.10 μg/ml, day 77 post infection
  HIV-1-induced syncytium formation in CEM cells: 100 percentage of control
HIV-1; single drug 0.25 μg/ml, day 4 post infection
  HIV-1-induced syncytium formation in CEM cells: 0 percentage of control
HIV-1; single drug 0.25 μg/ml, day 7 post infection
  HIV-1-induced syncytium formation in CEM cells: 0 percentage of control
HIV-1; single drug 0.25 μg/ml, day 11 post infection
  HIV-1-induced syncytium formation in CEM cells: 0 percentage of control
HIV-1; single drug 0.25 μg/ml, day 14 post infection
  HIV-1-induced syncytium formation in CEM cells: 6.25 percentage of control
HIV-1; single drug 0.25 μg/ml, day 18 post infection
  HIV-1-induced syncytium formation in CEM cells: 50 percentage of control
HIV-1; single drug 0.25 μg/ml, day 21 post infection
  HIV-1-induced syncytium formation in CEM cells: 100 percentage of control
HIV-1; single drug 0.25 μg/ml, day 25 post infection
  HIV-1-induced syncytium formation in CEM cells: 100 percentage of control
HIV-1; single drug 0.25 μg/ml, day 28 post infection
  HIV-1-induced syncytium formation in CEM cells: 100 percentage of control
HIV-1; single drug 0.25 μg/ml, day 32 post infection
  HIV-1-induced syncytium formation in CEM cells: 100 percentage of control
HIV-1; single drug 0.25 μg/ml, day 35 post infection
  HIV-1-induced syncytium formation in CEM cells: 100 percentage of control
HIV-1; single drug 0.25 μg/ml, day 39 post infection
  HIV-1-induced syncytium formation in CEM cells: 100 percentage of control
HIV-1; single drug 0.25 μg/ml, day 42 post infection
  HIV-1-induced syncytium formation in CEM cells: 100 percentage of control
HIV-1; single drug 0.25 μg/ml, day 46 post infection
  HIV-1-induced syncytium formation in CEM cells: 100 percentage of control
HIV-1; single drug 0.25 μg/ml, day 49 post infection
  HIV-1-induced syncytium formation in CEM cells: 100 percentage of control
HIV-1; single drug 0.25 μg/ml, day 53 post infection
  HIV-1-induced syncytium formation in CEM cells: 100 percentage of control
HIV-1; single drug 0.25 μg/ml, day 56 post infection
  HIV-1-induced syncytium formation in CEM cells: 100 percentage of control
HIV-1; single drug 0.25 μg/ml, day 60 post infection
  HIV-1-induced syncytium formation in CEM cells: 100 percentage of control
HIV-1; single drug 0.25 μg/ml, day 64 post infection
  HIV-1-induced syncytium formation in CEM cells: 100 percentage of control
HIV-1; single drug 0.25 μg/ml, day 67 post infection
  HIV-1-induced syncytium formation in CEM cells: 100 percentage of control
HIV-1; single drug 0.25 μg/ml, day 71 post infection
  HIV-1-induced syncytium formation in CEM cells: 100 percentage of control
HIV-1; single drug 0.25 μg/ml, day 74 post infection
  HIV-1-induced syncytium formation in CEM cells: 100 percentage of control
HIV-1; single drug 0.25 μg/ml, day 77 post infection
  HIV-1-induced syncytium formation in CEM cells: 100 percentage of control
HIV-1; single drug, higher concentrations
  virus breakthrough delayed till day: 14 days

## Nc1ccn([C@@H]2CS[C@H](CO)O2)c(=O)n1 [Compound 3TC, (-)-2'-deoxy-3'-thiacytidine]
HIV-1/III(0.1) 103-Asn; [2]
  EC50: 0.03 µg/mL (≈ 0.131 µM)
HIV-1/I(0.1) 103-Asn; [2]
  EC50: 0.03 µg/mL (≈ 0.131 µM)
[1]; [2]
  EC50: 0.04 µg/mL (≈ 0.174 µM)
HIV-1/V(0.5) 103-Asn; [2]
  EC50: 0.04 µg/mL (≈ 0.174 µM)
HIV-1/IV(0.1) 103-Thr; [2]
  EC50: 0.03 µg/mL (≈ 0.131 µM)
HIV-1/II(0.1) 100-Ile; [2]
  EC50: 0.05 µg/mL (≈ 0.218 µM)
HIV-1(IIIB) (WT); Human immunodeficiency virus 1, IIIB, CCRF-CEM, HIV-1 (III8), Table 5, read-out: EC50
  EC50: 0.008 µg/mL (≈ 0.0349 µM)

## CCOCn1c(Cc2ccccc2)c(C(C)C)c(=O)[nH]c1=O [MKC-442]
HIV-1/III(0.1) 103-Asn
  EC50: 0.01 µg/mL (≈ 0.0331 µM)
HIV-1/I(0.1) 103-Asn
  EC50: 0.08 µg/mL (≈ 0.265 µM)
[1]
  EC50: 0.008 µg/mL (≈ 0.0265 µM)
HIV-1/V(0.5) 103-Asn
  EC50: 0.35 µg/mL (≈ 1.16 µM)
HIV-1/IV(0.1) 103-Thr
  EC50: 0.32 µg/mL (≈ 1.06 µM)
HIV-1/II(0.1) 100-Ile
  EC50: 0.40 µg/mL (≈ 1.32 µM)
HIV-1(IIIB) (WT); HIV-1 (III8), Table 5
  EC50: 0.0006 µg/mL (≈ 0.00198 µM)
